Measured values reported in patent US12624009B2, “Hydrate of VEGFR inhibitor, crystal form thereof and preparation method therefor” (CHENGDU EASTON BIOPHARMACEUTICALS CO., LTD, priority 2023, dated 2026).

Columns and labels:
Type in all cases: physicochemical
[1] = Stability of crystal forms suspended and stirred in water, solids characterised by XRD; settings: for crystal form stability in water: 25° C. and 37° C., 5 h and 24 h, compared with crystal forms I, II, III, VII, IV, VIII and C
Text: The solids were filtered and subjected to XRD characterization.

[2] = Storage stability investigation of crystal forms of fruquintinib (crystal form after storage); settings: for crystal form stability under the conditions investigated: 25° C./RH60% and 40° C./RH75%, storage up to 6 months (FIG. 4, 5A, 5B)
[3] = Grinding in planetary ball mill, XRD compared with simulated single-crystal pattern; settings: 60 HZ, about 30 s
Text: The XRD pattern after grinding was substantially consistent with FIG. 1B.

SMILES	Suspending and stirring for 5 h Crystal form ([1]; 25° C.)	Suspending and stirring for 24 h Crystal form ([1]; 25° C.)	Suspending and stirring for 5 h Crystal form ([1]; 37° C.)	Suspending and stirring for 24 h Crystal form ([1]; 37° C.)	crystal form stability under the conditions investigated [2]	Crystal form after storage ([2]; 25° C./RH60%, 6 months)	Crystal form after storage ([2]; 40° C./RH75%, 6 months)	polymorphic transition after grinding [3]	crystal form stability in water [1]	crystal form stability in water ([1]; listed as crystal form α of fruquintinib)	Crystal form after storage ([2]; 25° C./RH60%, 2 months)	Crystal form after storage ([2]; 40° C./RH75%, 2 months)
CNC(=O)c1c(C)oc2cc(Oc3ncnc4cc(OC)c(OC)cc34)ccc12 [Crystal form VIII, 6-(6,7-dimethoxyquinazolin-4-yl-oxy)-N,2-dimethylbenzofuran-3-carboxamide]	Crystal form α	Crystal form α	Crystal form α	Crystal form α	–	–	–	–	–	–	–	–
CNC(=O)c1c(C)oc2cc(Oc3ncnc4cc(OC)c(OC)cc34)ccc12 [Crystal form C, 6-(6,7-dimethoxyquinazolin-4-yl-oxy)-N,2-dimethylbenzofuran-3-carboxamide]	Crystal form α	Crystal form α	Crystal form α	Crystal form α	–	–	–	–	–	–	–	–
CNC(=O)c1c(C)oc2cc(Oc3ncnc4cc(OC)c(OC)cc34)ccc12 [Crystal form III, 6-(6,7-dimethoxyquinazolin-4-yl-oxy)-N,2-dimethylbenzofuran-3-carboxamide]	Crystal form α	Crystal form α	Crystal form α	Crystal form α	–	–	–	–	–	–	–	–
CNC(=O)c1c(C)oc2cc(Oc3ncnc4cc(OC)c(OC)cc34)ccc12 [Crystal form α (after grinding), 6-(6,7-dimethoxyquinazolin-4-yl-oxy)-N,2-dimethylbenzofuran-3-carboxamide]	–	–	–	–	good crystal form stability	Crystal form α	Crystal form α	–	–	–	–	–
CNC(=O)c1c(C)oc2cc(Oc3ncnc4cc(OC)c(OC)cc34)ccc12 [Crystal form I, 6-(6,7-dimethoxyquinazolin-4-yl-oxy)-N,2-dimethylbenzofuran-3-carboxamide]	Crystal form I	–	Crystal form I	–	–	–	–	–	–	–	–	–
CNC(=O)c1c(C)oc2cc(Oc3ncnc4cc(OC)c(OC)cc34)ccc12 [Crystal form VII, 6-(6,7-dimethoxyquinazolin-4-yl-oxy)-N,2-dimethylbenzofuran-3-carboxamide]	Crystal form α	Crystal form α	Crystal form α	Crystal form α	–	–	–	–	–	–	–	–
CNC(=O)c1c(C)oc2cc(Oc3ncnc4cc(OC)c(OC)cc34)ccc12 [Crystal form II, 6-(6,7-dimethoxyquinazolin-4-yl-oxy)-N,2-dimethylbenzofuran-3-carboxamide]	Crystal form α	Crystal form α	Crystal form α	Crystal form α	–	–	–	–	–	–	–	–
CNC(=O)c1c(C)oc2cc(Oc3ncnc4cc(OC)c(OC)cc34)ccc12 [Crystal form α, 6-(6,7-dimethoxyquinazolin-4-yl-oxy)-N,2-dimethylbenzofuran-3-carboxamide]	Crystal form α	Crystal form α	Crystal form α	Crystal form α	good crystal form stability	Crystal form α	Crystal form α	did not undergo polymorphic transition	good stability in water	better crystal form stability	Crystal form α	Crystal form α
CNC(=O)c1c(C)oc2cc(Oc3ncnc4cc(OC)c(OC)cc34)ccc12 [Crystal form α + crystal form I, 6-(6,7-dimethoxyquinazolin-4-yl-oxy)-N,2-dimethylbenzofuran-3-carboxamide]	Crystal form α	Crystal form α	Crystal form α	Crystal form α	–	–	–	–	–	–	–	–
CNC(=O)c1c(C)oc2cc(Oc3ncnc4cc(OC)c(OC)cc34)ccc12 [Crystal form IV, 6-(6,7-dimethoxyquinazolin-4-yl-oxy)-N,2-dimethylbenzofuran-3-carboxamide]	Crystal form α	Crystal form α	Crystal form α	Crystal form α	–	–	–	–	–	–	–	–
